Key:
Carbonic anhydrase 9 = Carbonic anhydrase 9 (Homo sapiens, UniProt Q16790); assay: Inhibition of recombinant human carbonic anhydrase 9 assessed as inhibition of CO2 hydration preincubated for 15 mins prior to testing by phenol red based stopped-flow assay
MDA-MB-231 = assay: Cytotoxicity against human MDA-MB-231 cells under hypoxic condition by MTT assay
MCF7 = assay: Cytotoxicity against human MCF7 cells under hypoxic condition by MTT assay

Structure (SMILES) | Ki (Carbonic anhydrase 9) | IC50 (MDA-MB-231) | IC50 (MCF7)
Cc1ccc(/C(CS(=O)(=O)c2ccccc2)=N/Nc2ccc(S(N)(=O)=O)cc2)cc1 | 36.5 nM |  | 
NS(=O)(=O)c1ccc(N/N=C(\CS(=O)(=O)c2ccccc2)c2ccc(-c3ccccc3)cc2)cc1 | 132 nM |  | 
Cc1ccc(S(=O)(=O)C/C(=N\Nc2ccc(S(N)(=O)=O)cc2)c2ccccc2)cc1 | 39.5 nM |  | 
NS(=O)(=O)c1ccc(N/N=C(\CS(=O)(=O)c2ccccc2)c2ccc(Br)cc2)cc1 | 61.2 nM |  | 
NS(=O)(=O)c1ccc(N/N=C(\CS(=O)(=O)c2ccccc2)c2ccc([N+](=O)[O-])cc2)cc1 | 71.6 nM |  | 
Cc1ccc(S(=O)(=O)C/C(=N\Nc2ccc(S(N)(=O)=O)cc2)c2ccc3ccccc3c2)cc1 | 15.3 nM |  | 
Cc1ccc(/C(CS(=O)(=O)c2ccc(C)cc2)=N/Nc2ccc(S(N)(=O)=O)cc2)cc1 | 5.3 nM | 5140 nM | 2330 nM
NS(=O)(=O)c1ccc(N/N=C(\CS(=O)(=O)c2ccccc2)c2ccc3ccccc3c2)cc1 | 39.3 nM |  | 
NS(=O)(=O)c1ccc(N/N=C(\CS(=O)(=O)c2ccccc2)c2ccco2)cc1 | 79.3 nM |  | 
NS(=O)(=O)c1ccc(N/N=C(\CS(=O)(=O)c2ccccc2)c2cc3ccccc3o2)cc1 | 69.1 nM |  | 
Cc1ccc(S(=O)(=O)C/C(=N\Nc2ccc(S(N)(=O)=O)cc2)c2ccc([N+](=O)[O-])cc2)cc1 | 79.2 nM |  | 
NS(=O)(=O)c1ccc(N/N=C(\CS(=O)(=O)c2ccccc2)c2ccc(Cl)cc2)cc1 | 34.8 nM |  | 
Cc1ccc(S(=O)(=O)C/C(=N\Nc2ccc(S(N)(=O)=O)cc2)c2ccsc2)cc1 | 56.3 nM |  | 
Cc1ccc(S(=O)(=O)C/C(=N\Nc2ccc(S(N)(=O)=O)cc2)c2ccc(F)cc2)cc1 | 27.6 nM |  | 
COc1cccc2c1C(=O)c1c(O)c3c(c(O)c1C2=O)C[C@@](O)(C(=O)CO)C[C@@H]3O[C@H]1C[C@H](N)[C@H](O)[C@H](C)O1 [DOXORUBICIN] |  |  | 370 nM
Cc1ccc(S(=O)(=O)C/C(=N\Nc2ccc(S(N)(=O)=O)cc2)c2ccc(Cl)cc2)cc1 | 8.7 nM | 18200 nM | 3900 nM
NS(=O)(=O)c1ccc(N/N=C(\CS(=O)(=O)c2ccccc2)c2ccc(F)cc2)cc1 | 7.5 nM |  | 
Cc1ccc(S(=O)(=O)C/C(=N\Nc2ccc(S(N)(=O)=O)cc2)c2ccc(Br)cc2)cc1 | 56.1 nM |  | 

Source: ChEMBL document CHEMBL4152225, “Dual-tail arylsulfone-based benzenesulfonamides differently match the hydrophobic and hydrophilic halves of human carbonic anhydrases active sites: Selective inhibitors for the tumor-associated hCA IX isoform” (Eur J Med Chem, 2018)
